From US7838536B2, “Water-soluble zinc ionophores, zinc chelators, and/or zinc complexes and use for treating cancer” (priority 2006, dated 2010)
Where two headings read alike, the source gives them in different places.

Tests used:
[1] = system: PC3 prostate cancer cells; conditions: PC3 xenograft
Description: (§1) Human cell lines (A549 lung carcinoma, PC3 and DU145 prostatic carcinoma, and potentially others) were used. Mice received XRT (whole body radiation) up to 2 days prior to inoculation to minimize tumor regression due to residual immunological systems. The animal was administered a sub-lethal dose of whole body radiation of up to 4.5 Gy. The published literature indicates the LD50/30 dose for whole body radiation in the mouse to be 6.2 Gy. At the time of tumor implantation, mice were anesthetized by isoflurane inhalation or by IP injection of a ketamine/xylazine cocktail. Using vernier calipers, tumor size was measured; and tumor volume calculated on day 0 of study, at a minimum of 2-3 times/week and immediately prior to scheduled sacrifice. The tumor volume was estimated using the formula for a prolate ellipsoid: V=[(length)×(width)^2]/2 or hemi-ellipsoid: V=π/6×(length)×(width)×(height). When tumors reached a predetermined tumor volume animals were divided into treatment groups followed by test/control article dosing. Maximum allowable tumor burden prior to sacrifice is a mean surface diameter of 20 mm or not more than 10% of the animal's body weight as described in the NIH tumor burden guidelines for mice.
In this example, the ionophore was formulated in 5% mannitol.

[2] = system: DU145 prostate cancer cells; conditions: DU145 xenograft, intravenous 60 μmol/kg q.d.×4, formulated in 30% THPB-P beta-cyclodextrin vehicle, FIG. 31
Description: as §1

[3] = system: A549 human lung cancer cells; conditions: A549 xenograft, FIG. 28
Description: as §1

[4] = mouse, in vivo
[5] = zinc binding motif, well known; cited from earlier work
[6] = system: cancer cells; experiment: intracellular free zinc in cancer cells; format: cell-based; conditions: previously found
Description: The concentration of intracellular free zinc is assessed using the ion-specific fluorescent probe, FluoZin-3-AM-(FluoZin-3, Molecular Probes, Inc.). […] Following treatment, cells are isolated by centrifugation. Cell pellets are washed and re-suspended in a solution of 0.5% BSA in PBS. An aliquot of 10^6 cells (200 μL) is removed, centrifuged, and treated with FluoZin-3 reaction buffer An aliquot of the cell suspension is supplemented with 2 μg/mL propidium iodide (Sigma Biochemical), incubated for 5 minutes, and subjected to two-parameter flow cytometric analysis. See, e.g., FIG. 27.

[7] = system: cancer cells; conditions: reported; cited from earlier work
[8] = cited from earlier work
[9] = system: cell lines including A549 lung, PC3 prostate, K1 and E89 Chinese hamster ovary (CHO), Ramos, DHL-4, and HF-1 B-cell lymphoma; experiment: standard tetrazolide reduction proliferation assay; format: cell-based; conditions: ZnHPT formed in situ from HPT and zinc
Description: The proliferation of exponential phase cultures of A549 and PC3 cells is assessed by formazan reduction. In brief, A549 (2000 cells/well) or PC3 (4000 cells/well) cells are seeded on 96-well microtiter plates and allowed to adhere overnight. Stock solutions of ZnHPT or PEGZnHPT in medium are serial diluted in a ratio of 1:4 down the plate. Stock solutions of MGd or ZnOAc2 or 5% mannitol in ACS grade water are added and plates are incubated at 37° C. under a 5% CO2/95% air atmosphere. After 24 hours, medium is replaced with fresh medium. After 2 additional days, medium is exchanged for fresh medium (150 μL/well) supplemented with the tetrazolium dye, 3-(4,5-dimethylthiazol-2-yl)-2,5-diphenyltetrazolium bromide (MTT, Sigma Chemical, 0.5 mg/mL). Plates are incubated at 37° C. and viable cells measured. […] Alternatively cellular reduction within plateau phase cultures is measured after 24 hours of treatment as a measure of the cytotoxicity due to treatment.

[10] = system: thioredoxin reductase; conditions: cells co-treated with MGd and ZnHPT, previously found
Description: Thioredoxin reductase activity is assessed by measuring the rate of lipoate reduction. In brief, A549 or PC3 cells (10,000 cells/well) are plated on 96-well plates and allowed to adhere overnight and grow two additional days until confluent. Cells are treated with ZnHPT, PEGZnHPT, MGd, zinc, or 5% mannitol as above for 4 hours. Medium is removed, cells are washed with Hanks Balanced Salt Solution (HBSS), and a solution of 5 mM lipoic acid and 1 mM 5,5′-dithiobis(2-nitrobenzoic acid) in HBSS (100 μL/well) is added. Plates are incubated at ambient temperature in the dark. At chosen time intervals, plate absorbance is measured at 405-650 nm. Plate absorbances are normalized to wells containing neither exogenous zinc nor texaphyrin complex to allow plate-to-plate comparison.

2-thiol-5-((2-(2-methoxyethoxy)ethoxy)methyl)pyridine-N-oxide, Zn complex [5-PEG-[2]-ZnHPT]
anticancer activity (tumor regrowth) as compared to control vehicle ([1]; intravenous 100 μmol/kg q.d.×2 and q.d.×4, formulated in 5% mannitol, FIG. 30): significant anticancer activity

2-thiol-5-((2-methoxyethoxy)methyl)pyridine-N-oxide, Zn complex [5-PEG-[1]-ZnHPT]
anticancer activity (tumor regrowth) as compared to control vehicle [2]: significant anticancer activity

COCCOCCOCCOCc1ccc([S-])[n+]([O-])c1.COCCOCCOCCOCc1ccc([S-])[n+]([O-])c1.[Zn+2] [5-PEG-[3]-ZnHPT, 2-thiol-5-((2-(2-(2-methoxyethoxy)ethoxy)ethoxy)methyl)pyridine-N-oxide, Zn complex]
anticancer activity (tumor regrowth) ([3]; in combination with MGd): significant anticancer activity | anticancer activity (tumor regrowth) ([3]; without MGd): significant anticancer activity | maximum tested without evidence of toxicity [4]: ≥ 120 µmol/kg | anticancer activity (tumor regrowth) ([1]; FIG. 29): significant anticancer activity

On1ccccc1=S [HPT]
logKβ2 [5]: 5.4

CC(=O)[O-].CC(=O)[O-].CCc1c(CC)c2cc3nc(cnc4cc(OCCOCCOCCOC)c(OCCOCCOCCOC)cc4ncc4nc(cc1[n-]2)C(CCCO)=C4C)C(C)=C3CCCO.O.[Gd+3] [MGd, motexafin gadolinium]
intracellular free zinc [6]: increased intracellular free zinc

On1ccccc1=S [ZnHPT, 1-hydroxypyridine-2-thione]
growth of cancer cells in culture [7]: inhibit the growth of cancer cells in culture | bioavailability ([8]; oral, typically formulated as a suspension in vegetable oil): poorly bioavailable | toxicity on oral administration ([8]; orally administered to laboratory animals): not found to be particularly toxic | inhibition of proliferation [9]: inhibits proliferation in a dose dependent manner | inhibition of thioredoxin reductase [10]: synergistic inhibition

Zinquin
logKβ2 [5]: ca. 18
